Experimental findings from patent US20130090385A1, “NOVEL SPECIFIC CASPASE-10 INHIBITORS” (MERCK PATENT GESELLSCHAFT MIT BESCHRANKTER HAFTUNG, priority 2005, published 2013) are described below.

Like-named read-outs stand apart in the source and are kept apart here. Where a SMILES comes first, the peptide text is derived from it. The star is where a group is joined. Cbz = O=C(OCc1ccccc1)*; CH2F = FC* Where only a bound is given, the exact number is not on record here.

In test [1] the target is T1, Recombinant human caspase-9 (Homo sapiens, UniProt P55211).
T1 sequence (P55211 1-416): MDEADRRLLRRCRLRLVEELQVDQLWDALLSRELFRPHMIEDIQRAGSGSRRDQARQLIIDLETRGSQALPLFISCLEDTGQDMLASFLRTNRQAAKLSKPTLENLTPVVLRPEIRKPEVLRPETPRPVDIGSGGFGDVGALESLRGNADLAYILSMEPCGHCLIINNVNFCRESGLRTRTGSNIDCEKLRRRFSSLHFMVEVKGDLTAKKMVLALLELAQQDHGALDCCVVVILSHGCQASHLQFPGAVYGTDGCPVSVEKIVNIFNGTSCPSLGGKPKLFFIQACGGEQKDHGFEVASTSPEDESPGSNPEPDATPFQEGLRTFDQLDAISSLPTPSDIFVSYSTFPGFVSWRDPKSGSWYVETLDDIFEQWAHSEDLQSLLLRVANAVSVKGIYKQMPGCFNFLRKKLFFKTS
In words: delayed-time fluorescence caspase inhibition test, caspase-9.
Protocol: (§1) The substrate used is a tetrapeptide specific to this caspase, having at one of its ends a fluorescent europium marker (W1284) and at the other end a europium chelate fluorescence quencher (QSy-7): Eu-W1284-CIETDK-QSy-7.
(§2) The caspase cleaves the substrate, releasing the quencher. Thus, by excitation at 340 nm, the signal emitted by the fluorescence of the europium is read by WALLAC Victor^2 reader at 615 nm.
(§3) They are ready for use or may be divided into aliquots and stored at −80° C.. […] 20 μl of this solution are distributed per well of the assay plate. […] The assay is performed with 1 U of enzyme per well, by distributing 20 μl of the diluted solution per well. • The standard inhibitors: The standard inhibitors are dissolved in DMSO to a concentration of 10 mM. They are tested at IC20 and at IC50 on the caspases they inhibit (see following table).
(§4) They are then distributed in the wells using this solution to reach the final concentration of IC20 or IC50, i.e. 3 μl in 33 μl of final reaction volume (dilution 1/11). Thus, the final concentration of DMSO in the well is 0.3% (v/v) final. […] An intermediate dilution (1/6.6) is prepared in DMSO by diluting 10 μl of the concentrated solution in 66 μl of DMSO (final volume). […] The inhibitors are then distributed in the wells to reach the final screening concentration (10 μM), i.e. 3 μl in 33 μl of final reaction volume (dilution 1/11) and a final concentration of DMSO of 0.3% (v/v) in the well. • Protocol:
(§5) The incubation takes place for 3 hours 30 minutes at room temperature before reading the fluorescence in delayed time on the WALLAC Victor^2 reader with the filters corresponding to the fluorescence of europium (excitation filter: 340 nm, emission filter: 615 nm).
(§6) The inhibitors are diluted using solutions with concentrations of less than 20 mM in DMSO, and then prediluted in the caspase buffer. […] The specificity factor for caspase-10 is calculated as the following ratio:

Test [2] concerns the target T2, Recombinant human caspase-10 (Homo sapiens, UniProt Q92851).
T2 sequence (Q92851 220-521): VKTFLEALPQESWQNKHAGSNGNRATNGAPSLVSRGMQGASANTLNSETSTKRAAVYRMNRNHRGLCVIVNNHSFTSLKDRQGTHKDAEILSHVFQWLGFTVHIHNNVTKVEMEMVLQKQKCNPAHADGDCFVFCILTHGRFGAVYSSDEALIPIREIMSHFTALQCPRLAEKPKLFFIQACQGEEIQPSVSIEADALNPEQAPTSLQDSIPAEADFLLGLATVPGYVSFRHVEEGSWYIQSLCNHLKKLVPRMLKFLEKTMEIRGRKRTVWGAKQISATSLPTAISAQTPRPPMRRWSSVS
In words: delayed-time fluorescence caspase inhibition test, caspase-10.
Protocol: as §1, §2, §3, §4, §5, §6

Test [3] addresses T3, Recombinant human caspase-3 (Homo sapiens, UniProt P42574).
T3 sequence (P42574 29-277): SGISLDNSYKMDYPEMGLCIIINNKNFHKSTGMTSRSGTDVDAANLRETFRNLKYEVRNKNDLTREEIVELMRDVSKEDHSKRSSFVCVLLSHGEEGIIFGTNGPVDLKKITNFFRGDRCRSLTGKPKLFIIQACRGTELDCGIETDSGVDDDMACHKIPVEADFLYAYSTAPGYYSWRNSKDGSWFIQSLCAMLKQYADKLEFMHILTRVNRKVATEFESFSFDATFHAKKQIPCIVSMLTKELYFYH
As to the kind of experiment: delayed-time fluorescence caspase inhibition test, caspase-3.
Protocol: as §1, §2
20 μl of this solution are distributed per well of the assay plate. […] The assay is performed with 1 U of enzyme per well, by distributing 20 μl of the diluted solution per well. • The standard inhibitors: The standard inhibitors are dissolved in DMSO to a concentration of 10 mM. They are tested at IC20 and at IC50 on the caspases they inhibit (see following table). The concentrations mentioned in the table are the final concentrations in the assay wells.
as §4
The volumes and the protocol were optimised for automated use.
as §5
The inhibitors are diluted using solutions with concentrations of less than 20 mM in DMSO, and then prediluted in the caspase buffer.

For test [4], the target named is T4, Recombinant human caspase-2 (Homo sapiens, UniProt P42575).
T4 sequence (P42575 1-452): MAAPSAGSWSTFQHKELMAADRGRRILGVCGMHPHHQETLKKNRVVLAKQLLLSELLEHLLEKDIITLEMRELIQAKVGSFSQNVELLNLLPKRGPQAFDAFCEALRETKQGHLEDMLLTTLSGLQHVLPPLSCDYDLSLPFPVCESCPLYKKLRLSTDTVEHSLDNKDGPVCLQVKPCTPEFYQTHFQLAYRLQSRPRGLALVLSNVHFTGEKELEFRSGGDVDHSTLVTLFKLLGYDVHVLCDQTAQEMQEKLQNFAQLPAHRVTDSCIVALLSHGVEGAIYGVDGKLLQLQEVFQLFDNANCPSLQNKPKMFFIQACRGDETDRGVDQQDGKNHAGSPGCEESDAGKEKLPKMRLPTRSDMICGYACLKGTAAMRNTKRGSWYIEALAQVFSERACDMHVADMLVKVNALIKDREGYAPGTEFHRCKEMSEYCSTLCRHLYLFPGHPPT
In words: delayed-time fluorescence caspase inhibition test, caspase-2.
Protocol: as §1, §2, §3, §4, §5, §6

The target of test [5] is Recombinant human caspase-8 (Homo sapiens, UniProt Q14790). As to the kind of experiment: delayed-time fluorescence caspase inhibition test, caspase-8.
Sequence of Recombinant human caspase-8 (Q14790 217-479): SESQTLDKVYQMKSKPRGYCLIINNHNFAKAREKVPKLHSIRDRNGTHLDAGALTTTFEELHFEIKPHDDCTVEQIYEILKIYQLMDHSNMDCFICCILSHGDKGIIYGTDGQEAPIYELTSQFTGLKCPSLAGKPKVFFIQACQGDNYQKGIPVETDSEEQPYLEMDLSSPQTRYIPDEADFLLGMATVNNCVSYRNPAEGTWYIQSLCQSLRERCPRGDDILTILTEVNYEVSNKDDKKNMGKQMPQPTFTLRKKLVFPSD
Protocol: as §1, §2, §3, §4, §5, §6
Test [6] deals with T5, Recombinant human caspase-6 (Homo sapiens, UniProt P55212).
T5 sequence (P55212 24-293): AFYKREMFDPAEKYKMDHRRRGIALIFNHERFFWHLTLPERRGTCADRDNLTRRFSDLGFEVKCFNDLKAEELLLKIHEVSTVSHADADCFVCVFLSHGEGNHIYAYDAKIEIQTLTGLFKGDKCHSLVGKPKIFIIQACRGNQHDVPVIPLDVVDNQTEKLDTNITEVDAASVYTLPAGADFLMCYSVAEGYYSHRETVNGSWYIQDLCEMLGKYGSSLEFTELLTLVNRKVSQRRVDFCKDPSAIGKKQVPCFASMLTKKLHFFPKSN
In words: delayed-time fluorescence caspase inhibition test, caspase-6.
Protocol: as §1, §2, §3, §4, §5, §6

Setting [7] is: read-out: IC20 of standard inhibitor.

For the compound `O=S(=O)(NCC1(Cc2ccc(CCOCC3CC3)cc2)CCC1)c1ccc(Cl)cc1Cl` [Example 1, 2,4-Dichloro-N-[(1-{4-[2-(cyclopropylmethoxy)ethyl]benzyl}cyclobutyl)methyl]benzenesulfonamide], the IC50 (commonly the concentration at which inhibition is half-maximal) is > 200 µM in test [1]; 0.22 µM in test [2]; > 200 µM in test [3]; > 200 µM in test [4]; > 200 µM in test [5]; > 200 µM in test [6].
On to `COc1ccc(S(=O)(=O)NCC2(Cc3ccc(CCOCC4CC4)cc3)CCC2)cc1` [Example 5, N-[(1-{4-[2-(cyclopropylmethoxy)ethyl]benzyl}cyclobutyl)methyl]-4-methoxy-benzenesulfonamide], for which the IC50 was > 200 µM in test [1]; 3.59 µM in test [2]; > 200 µM in test [3]; > 200 µM in test [4]; > 200 µM in test [5]; > 200 µM in test [6].
As for `O=S(=O)(NCC1(Cc2ccc(CCSC3CCCC3)cc2)CCC1)c1ccc(Cl)cc1Cl` [Example 12, 2,4-dichloro-N-[(1-{4-[2-(cyclopentylthio)ethyl]benzyl}cyclobutyl)methyl]benzenesulfonamide], the IC50 in test [1] is > 200 µM; in test [2] it was 0.216 µM; in test [3], > 200 µM; in test [4] it was > 200 µM; in test [5], > 200 µM; in test [6] it was > 200 µM.
For `CSCCc1ccc(CC2(CNS(=O)(=O)c3ccc(Cl)cc3Cl)CCC2)cc1` [Example 17, 2,4-dichloro-N-[(1-{4-[2-(methylthio)ethyl]benzyl}cyclobutyl)methyl]benzenesulfonamide], the IC50 in test [1] is > 200 µM; in test [2] it was 0.214 µM; in test [3], > 200 µM; in test [4], > 200 µM; in test [5], > 200 µM; in test [6], > 200 µM.
For the compound `O=S(=O)(NCC1(Cc2ccc(CCS(=O)(=O)C3CCCC3)cc2)CCC1)c1ccc(Cl)cc1Cl` [Example 22, 2,4-dichloro-N-[(1-{4-[2-(cyclopentylsulfonyl)ethyl]benzyl}cyclobutyl)methyl]benzenesulfonamide], the IC50 in test [1] was > 200 µM; in test [2], 0.705 µM; in test [3] it was > 200 µM; in test [4], > 200 µM; in test [5], > 200 µM; in test [6], > 200 µM.
Regarding `CS(=O)(=O)CCc1ccc(CC2(CNS(=O)(=O)c3ccc(Cl)cc3Cl)CCC2)cc1` [Example 27, 2,4-dichloro-N-[(1-{4-[2-(methylsulfonyl)ethyl]benzyl}cyclobutyl)methyl]benzenesulfonamide], the IC50 in test [1] was > 200 µM; in test [2], 0.235 µM; in test [3], > 200 µM; in test [4], > 200 µM; in test [5], > 200 µM; in test [6], > 200 µM.
With `CS(=O)(=O)CCc1ccc(CC2(CNS(=O)(=O)c3cccc4ccccc34)CCC2)cc1` [Example 30, N-[(1-{4-[2-(methylsulfonyl)ethyl]benzyl}cyclobutyl)methyl]naphthalene-1-sulfonamide], the IC50 in test [1] was > 200 µM; in test [2], 4.46 µM; in test [3] it was > 200 µM; in test [4], > 200 µM; in test [5], > 200 µM; in test [6], > 200 µM.
Take `O=S(=O)(NCC1(Cc2ccc(CCO)cc2)CCCC1)c1ccc(Cl)cc1` [Example 33]: the IC50 was > 200 µM in test [1] (read-out: Inhibition IC50 Caspase-9, tested 100 nM to 200 μM, 1% DMSO, 3 h 30 min at room temperature); 1.7 µM in test [2] (read-out: Inhibition IC50 Caspase-10, tested 100 nM to 200 μM, 1% DMSO, 3 h 30 min at room temperature); > 200 µM in test [3] (read-out: Inhibition IC50 Caspase-3, tested 100 nM to 200 μM, 1% DMSO, 3 h 30 min at room temperature); > 200 µM in test [4] (read-out: Inhibition IC50 Caspase-2, tested 100 nM to 200 μM, 1% DMSO, 3 h 30 min at room temperature); > 200 µM in test [5] (read-out: Inhibition IC50 Caspase-8, tested 100 nM to 200 μM, 1% DMSO, 3 h 30 min at room temperature); > 200 µM in test [6] (read-out: Inhibition IC50 Caspase-6, tested 100 nM to 200 μM, 1% DMSO, 3 h 30 min at room temperature).
On to `O=S(=O)(NCC1(Cc2ccc(CCO)cc2)CCCC1)c1cccc(Cl)c1` [Example 34], for which the IC50 in test [1] was > 200 µM; in test [2], 3.5 µM; in test [3], > 200 µM; in test [4], > 200 µM; in test [5] it was > 200 µM; in test [6] it was > 200 µM.
As to `CC(=O)c1ccc(S(=O)(=O)NCC2(Cc3ccc(CCO)cc3)CCCC2)cc1` [Example 35], the IC50 in test [1] is > 200 µM; in test [2], 2.88 µM; in test [3], > 200 µM; in test [4] it was > 200 µM; in test [5] it was > 200 µM; in test [6], > 200 µM.
Take `CS(=O)(=O)c1ccc(S(=O)(=O)NCC2(Cc3ccc(CCO)cc3)CCCC2)cc1` [Example 36]: the half-inhibitory concentration (IC50) in test [1] is > 200 µM; in test [2], 9.66 µM; in test [3], > 200 µM; in test [4], > 200 µM; in test [5] it was > 200 µM; in test [6] it was > 200 µM.
On to `CSc1ccc(S(=O)(=O)NCC2(Cc3ccc(CCO)cc3)CCCC2)cc1` [Example 43], for which the IC50 in test [1] was > 200 µM; in test [2], 5.12 µM; in test [3], > 200 µM; in test [4] it was > 200 µM; in test [5], > 200 µM; in test [6], > 200 µM.
Consider `O=S(=O)(NCC1(Cc2ccc(CCO)cc2)CCCC1)c1ccc(Cl)c(Cl)c1` [Example 45], for which the IC50 in test [1] is > 200 µM; in test [2], 0.297 µM; in test [3], > 200 µM; in test [4], > 200 µM; in test [5], > 200 µM; in test [6] it was > 200 µM.
Turning to `COC(=O)C[C@H](NC(=O)[C@H](C)NC(=O)[C@@H](NC(=O)[C@H](CC(=O)OC)NC(=O)OCc1ccccc1)C(C)C)C(=O)CF` [z- DVAD - fmk, reference compound] (Cbz-D(OMe)VAD(OMe)-CH2F), the IC20 (as a rule, the concentration at which the effect reaches the 20% level) in test [4] (setting [7]) was 3 µM.
Turning to `CC[C@H](C)[C@H](NC(=O)OCc1ccccc1)C(=O)N[C@@H](CCC(=O)OC)C(=O)N[C@H](C(=O)N[C@@H](CC(=O)OC)C(=O)CF)[C@@H](C)O` [z- IETD - fmk, z-IE(OMe)TD(OMe)-fmk, reference compound] (Cbz-IE(OMe)TD(OMe)-CH2F), the IC20 came to 0.08 µM in test [2] (setting [7]) and 1.5 µM in test [5] (setting [7]).
`CC[C@H](C)[C@H](NC(=O)[C@H](CCC(=O)OC)NC(=O)[C@@H](NC(=O)OCc1ccccc1)C(C)C)C(=O)N[C@@H](CC(=O)OC)C(=O)CF` [z- VEID - fmk, z-VE(OMe)ID(OMe)-fmk, reference compound] (Cbz-VE(OMe)ID(OMe)-CH2F): in test [6] (setting [7]), the IC20 was 3 µM.
Turning to `COC(=O)CC[C@H](NC(=O)[C@H](CC(C)C)NC(=O)OCc1ccccc1)C(=O)N[C@@H](Cc1c[nH]cn1)C(=O)N[C@@H](CC(=O)OC)C(=O)CF` [z-LEHD - fmk, z-LE(OMe)HD(OMe)-fmk, reference compound] (Cbz-LE(OMe)HD(OMe)-CH2F), in test [1] (setting [7]), the IC20 is 0.2 µM.
